Test results published in article PMC8233510 (Molecular Biology and Evolution, 2021).

Assays:
Experiment in all cases: […]-SAM radiochemical methyltransferase assay, Michaelis-Menten fit
Conditions in all cases: SAM 320 μM (saturating), 50 mM Tris-HCl, 24 °C
CsAncCS = format: biochemical, synthetic construct
TcAncCS1 = format: biochemical, synthetic construct
TcCS2 = format: biochemical, Theobroma cacao
PcCS2 = format: biochemical, Paullinia cupana
TcAncCS2 = format: biochemical, synthetic construct
PcAncCS1 = format: biochemical, synthetic construct
PcCS1 = format: biochemical, Paullinia cupana
TcCS1 = format: biochemical, Theobroma cacao

For `Cn1cnc2[nH]c(=O)[nH]c(=O)c21` [7X, 7-methylxanthine], the Km (CsAncCS) was 26.7 µM and the Km (TcAncCS1) was 34.6 µM.
For `Cn1c(=O)[nH]c(=O)c2[nH]cnc21` [3X, 3-methylxanthine], the Km (TcAncCS1) was 139 µM, the Km (TcCS2) was 49.1 µM and the Km (PcCS2) was 677 µM. For the same molecule, the Km (TcAncCS2) was 154 µM.
Work on `O=c1[nH]c(=O)c2[nH]cnc2[nH]1` [X, xanthine] yielded a Km (PcAncCS1) of 418 µM, a Km (TcAncCS1) of 53.4 µM and a Km (PcCS1) of 95.4 µM. For the same molecule, the Km (TcCS1) was 95.8 µM and the Km (TcAncCS2) was 4.14 µM.
